Reference: PMC6627609, “Targeting Quorum Sensing: High-Throughput Screening to Identify Novel LsrK Inhibitors” (International Journal of Molecular Sciences, 2019)
Where a name gives a salt, the structure may show the parent alone.

Biological target: LsrK (Salmonella typhimurium, UniProt Q8ZKQ6)
Experiment: biochemical
Type: biochemical, S. typhimurium
Conditions: for Inhibition (%): 50 µM

LsrK, sequence (Q8ZKQ6 whole entry): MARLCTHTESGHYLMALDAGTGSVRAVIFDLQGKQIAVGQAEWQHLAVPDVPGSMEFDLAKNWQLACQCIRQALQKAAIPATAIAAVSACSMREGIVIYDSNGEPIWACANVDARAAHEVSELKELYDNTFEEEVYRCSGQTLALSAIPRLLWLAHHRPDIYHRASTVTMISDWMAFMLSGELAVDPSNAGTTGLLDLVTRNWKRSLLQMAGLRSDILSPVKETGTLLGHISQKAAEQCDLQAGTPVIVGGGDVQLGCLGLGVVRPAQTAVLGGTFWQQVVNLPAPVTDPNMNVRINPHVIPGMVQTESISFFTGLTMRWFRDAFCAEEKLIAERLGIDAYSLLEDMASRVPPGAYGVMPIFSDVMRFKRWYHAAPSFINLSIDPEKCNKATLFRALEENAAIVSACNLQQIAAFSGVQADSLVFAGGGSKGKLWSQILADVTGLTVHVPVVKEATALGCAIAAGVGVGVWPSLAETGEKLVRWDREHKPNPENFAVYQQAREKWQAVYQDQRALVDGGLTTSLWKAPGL

Structure (SMILES)	inhibition at 50 µM [%]	Inhibition (%)
COCCCOc1cc(C[C@@H](C[C@H](N)[C@@H](O)C[C@H](C(=O)NCC(C)(C)C(N)=O)C(C)C)C(C)C)ccc1OC [ALISKIREN HEMIFUMARATE]	0	
O=C1NC(=O)C(=O)C(=O)N1 [ALLOXAN]	18	
O=C1c2c(O)cccc2C([C@@H]2O[C@H](CO)[C@@H](O)[C@H](O)[C@H]2O)c2cc(CO)cc(O)c21 (some centres unmarked) [ALOIN]	45	
C=CCc1ccccc1OCC(O)CNC(C)C (centres unmarked) [ALPRENOLOL]	0	
C=CCSCC1Nc2cc(Cl)c(S(N)(=O)=O)cc2S(=O)(=O)N1 (centres unmarked) [ALTHIAZIDE]	2	
C=CC[C@]1(O)CC[C@H]2[C@@H]3CCC4=CC(=O)CCC4=C3C=C[C@@]21C [ALTRENOGEST]	0	
CN(C)c1nc(N(C)C)nc(N(C)C)n1 [ALTRETAMINE]	19	
CCN(CCCc1ccccc1)CCCc1ccccc1 [ALVERINE CITRATE]	1	
CC(=O)OCC(=O)[C@@]12OC3(CCCC3)O[C@@H]1C[C@H]1[C@@H]3CCC4=CC(=O)C=C[C@]4(C)[C@@]3(F)[C@@H](O)C[C@@]12C [AMCINONIDE]	1	
NCCCNCCSP(=O)(O)O [AMIFOSTINE]	3	
N=C(N)NC(=O)c1nc(Cl)c(N)nc1N [AMILORIDE HYDROCHLORIDE]	1	
NC1(C(=O)O)CC1 [AMINOCYCLOPROPANECARBOXYLIC ACID]	1	
Nc1ccc(C(=O)NCC(=O)O)cc1 [AMINOHIPPURIC ACID]	1	
Nc1ccc(C(=O)O)c(O)c1 [AMINOSALICYLATE SODIUM]	1	
CN(C)CCCO[C@@H]1[C@H]2OC(C)(C)O[C@H]2O[C@@H]1[C@H](O)CO [AMIPRILOSE]	2	
Cc1ccc(/N=C/N(C)/C=N/c2ccc(C)cc2C)c(C)c1 [AMITRAZ]	1	
C[C@@H]1[C@H](O)[C@@H](C)/C=C/C=C/C=C/C=C/C=C/C=C/C=C/[C@H](O[C@@H]2O[C@H](C)[C@@H](O)[C@H](N)[C@@H]2O)C[C@@H]2O[C@](O)(C[C@@H](O)C[C@@H](O)[C@H](O)CC[C@@H](O)C[C@@H](O)CC(=O)O[C@H]1C)C[C@H](O)[C@H]2C(=O)O [AMPHOTERICIN B]	61	
CC1(C)S[C@@H]2[C@H](NC(=O)[C@H](N)c3ccccc3)C(=O)N2[C@H]1C(=O)O [AMPICILLIN SODIUM]	1	
COc1cc(NS(C)(=O)=O)ccc1Nc1c2ccccc2nc2ccccc12 [AMSACRINE]	1	

Structure (SMILES)	inhibition at 50 µM [%]	Inhibition (%)
CN1CCCCC1c1ccc(-c2cccnc2)nc1 (centres unmarked) [ANABASAMINE HYDROCHLORIDE]	2	
c1cncc([C@@H]2CCCCN2)c1 [ANABASINE HYDROCHLORIDE]	2	
N=c1ccn2c(n1)O[C@H]1[C@H](O)[C@@H](CO)O[C@H]12 [ANCITABINE HYDROCHLORIDE]	2	
C[C@]12CC[C@@H](O)C[C@@H]1CC[C@@H]1[C@@H]2CC[C@]2(C)C(=O)CC[C@@H]12 [ANDROSTERONE]	1	
COc1ccc([C@@H](C)C(=O)c2ccc(O)cc2O)cc1 [ANGOLENSIN (R)]	1	
COc1ccc2c(=O)c(CC(=O)O)coc2c1 [ANHYD[…]]	3	
c1ccc(CN(CC2=NCCN2)c2ccccc2)cc1 [ANTAZOLINE PHOSPHATE]	1	
O=C1c2c(O)cccc2Cc2cccc(O)c21 [ANTHRALIN]	8	
O=C1c2ccccc2C(=O)c2ccccc21 [ANTHRAQUINONE]	0	
COc1cc(O)cc(OC)c1OC [ANTIAROL]	21	
O=c1cc(-c2ccc(O)cc2)oc2cc(O[C@@H]3O[C@H](CO)[C@@H](O)[C@H](O)[C@H]3O[C@@H]3OC[C@](O)(CO)[C@H]3O)cc(O)c12 [APIIN]	1	
C=CCc1cc(OC)c2c(c1OC)OCO2 [APIOLE]		1
COc1cc2c(cc1OC)-c1c(oc3cc(O)cc(O)c3c1=O)CO2 [APOTOXICAROL]		1
OCC(O)C(O)C(O)CO (centres unmarked) [ARABITOL(D)]		0
OC[C@H]1O[C@@H](Oc2ccc(O)cc2)[C@H](O)[C@@H](O)[C@@H]1O [ARBUTIN]	2	
Cl.N=C(N)NCCC[C@H](N)C(=O)O [ARGININE HYDROCHLORIDE]		1
C[C@H]1[C@@H](O)O[C@@H]2O[C@@]3(C)CC[C@H]4[C@H](C)CC[C@@H]1[C@@]24OO3 [ARTENIMOL]	0	
CCCCCCCCCCCCCCCC(=O)OC[C@H](O)[C@H]1OC(=O)C(O)=C1O [ASCORBYL PALMITATE]	28	
C[C@H]1[C@H](C)CC[C@]2(C(=O)O)CC[C@]3(C)C(=CC[C@@H]4[C@@]5(C)C[C@@H](O)[C@H](O)[C@@](C)(CO)[C@@H]5CC[C@]43C)[C@H]12 [ASIATIC ACID]	2	
